One may read the IC50 as the concentration needed to halve the response being measured.

The subject of series [1] is B. bigemina. Put plainly: Parasite viability test in vitro (regrowth after drug withdrawal, microscopy). The class given is cell-based. Further details: key: a positive (+) indicates parasites regrowth; a negative (–) shows the parasites total clearance after drug pressure withdrawal using microscopy assay. The note with it: 4 days treatment, then drug-free culture. The method, then:
(§1) The viability studies of ATR-treated parasites were monitored via microscopy as reported elsewhere. In a 96-well microtiter plate, an aliquot of 1% parasitemia (10 µL) of iRBCs was cultivated with 90 µL of respective media containing various concentrations of ATR and DA for 4 successive days with changing media daily. […] On the fifth day, a mixture of iRBCs (3 µL) from each well and fresh equine or bovine RBCs (7 µL) was transferred to another plate, cultured in a medium free from drug and then left for an additional six days. The total parasite clearance was recorded as negative, while the relapse of parasites was recorded as positive.

The subject of series [2] is B. bovis. The series is described as above. In kind it is cell-based. Set-up: key: a positive (+) indicates parasites regrowth; a negative (–) shows the parasites total clearance after drug pressure withdrawal using microscopy assay. The note with it: 4 days treatment, then drug-free culture. The method, then:
as §1

In series [3] the test system is B. caballi. The description is as above. The class given is cell-based. Set-up: key: a positive (+) indicates parasites regrowth; a negative (–) shows the parasites total clearance after drug pressure withdrawal using microscopy assay. The note with it: 4 days treatment, then drug-free culture. The method, then:
as §1

In series [4] the test system is B. divergens. The description is as above. In kind it is cell-based. Further details: key: a positive (+) indicates parasites regrowth; a negative (–) shows the parasites total clearance after drug pressure withdrawal using microscopy assay. The note with it: 4 days treatment, then drug-free culture. The method, then:
as §1

Series [5] has as its system T. equi. The series is described as above. In kind it is cell-based. Further details: key: a positive (+) indicates parasites regrowth; a negative (–) shows the parasites total clearance after drug pressure withdrawal using microscopy assay. To be noted: 4 days treatment, then drug-free culture. The method, then:
as §1

In series [6] the test system is NIH/3T3 cells. Kind of series: Cytotoxicity assay (CCK-8 cell viability). The class given is cell-based, mouse. The note with it: for EC50: read-out: EC50 NIH/3T3. The method, then: Cultures of human foreskin fibroblast (HFF; HFF-1 ATCC® SCRC-1041™), Madin–Darby bovine kidney (MDBK; ECACC) and mouse embryonic fibroblast (NIH/3T3; ATCC® CRL-1658™) cells were retrieved from −80 °C stock and cultured continuously at 37 °C under atmosphere 5% CO2 in our laboratory. The NIH/3T3 and HFFs cells were maintained in Dulbecco Modified Eagle’s Medium (DMEM; Gibco, Grand Island, NY, USA), while MDBK cell line grown in Minimum Essential Medium Eagle (MEM; Gibco). Each medium was treated with 0.5% penicillin/streptomycin (Gibco), 10% inactivated fetal bovine serum and 2 mM glutamine. Every 72 to 96 h, the medium was replaced, and once 80% confluence was reached, the cell collection was performed by sub-culture protocol. To confirm the absence of mycoplasma contamination, 4,6-diamidino-2-phenylindole dihydrochloride stain (Sigma-Aldrich) was used.
The cell viability test was conducted in a 96-well plate as described elsewhere. Briefly, an aliquot of (100 µL) cells was implanted at a concentration of 5 × 10^4 cells/mL in DMEM or MEM with fetal bovine serum and incubated overnight under atmosphere 5% CO2 at 37 °C for attachment. Using two-fold dilutions, aliquots (10 µL) of drugs were added in triplicate per well to attain final concentrations of 50 to 1000 µM and further incubated for 24 h. The positive control wells containing cells mixed with the medium in 0.4% DMSO, whereas the negative control wells containing culture medium only. After a 24-h incubation, Cell Counting Kits-8 (CCK-8, 10 µL) was added to each well and then plate incubation was conducted for an additional 3 h and a microplate reader was used to assess the absorbance at 450 nm.

Series [7] relates to bovine RBCs (B. divergens). Put plainly: Impact of ATR pretreatment of bovine RBCs on later parasite proliferation. The class given is cell-based. To be noted: 400 µM ATR for 3 and 6 h, then B. divergens subculture. The method, then: (§2) Prior to parasite subculture, a concentration of 400 µM of ATR was mixed with fresh bovine and equine RBCs and incubated at a humidified incubator for 3 and 6 h. Afterward, the pretreated-RBCs were mixed with B. divergens and T. equi infected RBCs (iRBCs) after washing thrice with PBS to achieve 1% parasitemia. Thereafter, using a 24-well plate, an aliquot of iRBCs (100 μL) was mixed with culture media (900 μL); the control RBCs were left untreated. To monitor the parasitemia and any side effects due to the pretreatment, Giemsa-stained smears were prepared every 24 h for four days.

Series [8] concerns equine RBCs (T. equi). Kind of series: Impact of ATR pretreatment of equine RBCs on later parasite proliferation. In kind it is cell-based. The note with it: 400 µM ATR for 3 and 6 h, then T. equi subculture. The method, then: as §2
Series [9] has as its system hepatitis C virus (HCV). Set-up: method as in PMID 25793970. To be noted: antiviral activity against hepatitis C virus (HCV); cited from earlier work.
The test system of series [10] is Plasmodium species. Further details: method as in earlier work. The note with it: ATR combined with quinine; cited from earlier work.
The test system of series [11] is LLC/MK2 monkey kidney epithelial cells. Set-up: method as in PMID 21487780. The note with it: cited from earlier work.
[12] abbreviates: EC50 NIH/3T3 / IC50 B. bigemina.
[13] abbreviates: EC50 NIH/3T3 / IC50 B. divergens.

Like-named read-outs stand apart in the source and are kept apart here. Where only a bound is given, the exact number is not on record here.

Turning to `COC(=O)c1c(C)cc(OC(=O)c2c(C)cc(O)c(C=O)c2O)c(C)c1O` [ATR, Atranorin], the Viability entry in series [1] (A1 = 0.25× IC50, 16.1 µM) is “+”; in [1] (A2 = 0.5× IC50, 32.25 µM), “+”; in series [1] (A3 = 1× IC50, 64.5 µM), “+”; in series [1] (A4 = 2× IC50, 129 µM), “completely suppressed and did not revive and –”; in series [1] (A5 = 4× IC50, 258 µM) it was “–”; in [1] (A6 = 6× IC50, 387 µM), “–”. Besides, the Viability entry in [2] (A1 = 0.25× IC50, 24.6 µM) is “+”; in [2] (A2 = 0.5× IC50, 49.2 µM), “+”; in [2] (A3 = 1× IC50, 98.4 µM), “+”; in [2] (A4 = 2× IC50, 196.8 µM) it was “completely suppressed and did not revive and –”; in [2] (A5 = 4× IC50, 393.6 µM), “–”; in series [2] (A6 = 6× IC50, 590.4 µM), “–”. Moreover, the Viability entry in [3] (A1 = 0.25× IC50, 11.65 µM) is “+”; in series [3] (A2 = 0.5× IC50, 23.3 µM) it was “+”; in series [3] (A3 = 1× IC50, 46.6 µM), “+”; in series [3] (A4 = 2× IC50, 93.2 µM), “completely suppressed and did not revive and –”; in series [3] (A5 = 4× IC50, 186.4 µM), “–”; in series [3] (A6 = 6× IC50, 279.6 µM), “–”. For the same compound, the Viability result in series [4] (A1 = 0.25× IC50, 11.3 µM) was “+”; in series [4] (A2 = 0.5× IC50, 22.6 µM) it was “+”; in series [4] (A3 = 1× IC50, 45.2 µM), “+”; in [4] (A4 = 2× IC50, 90.4 µM) it was “+”; in series [4] (A5 = 4× IC50, 180.8 µM), “cleared and did not revive and –”; in series [4] (A6 = 6× IC50, 271.2 µM) it was “–”. Besides, the Viability entry in [5] (A1 = 0.25× IC50, 17.8 µM) is “+”; in series [5] (A2 = 0.5× IC50, 35.6 µM) it was “+”; in series [5] (A3 = 1× IC50, 71.3 µM), “+”; in [5] (A4 = 2× IC50, 142.6 µM), “+”; in series [5] (A5 = 4× IC50, 285.2 µM), “+”; in [5] (A6 = 6× IC50, 427.8 µM), “suppressed and –”. In addition, the “Selective Index NIH/3T3” value in series [6] (setting [12]) is on record as 9.9; in series [6] (EC50 NIH/3T3 / IC50 B. bovis) it was 6.5; in [6] (EC50 NIH/3T3 / IC50 B. caballi), 13.7; in series [6] (setting [13]), 14.0; in [6] (EC50 NIH/3T3 / IC50 T. equi), 9. For the same compound, the EC50 in [6] (Mus musculus, NIH3T3, 24 h) was 638 ± 12 µM. Besides, the “parasite proliferation in ATR-pretreated RBCs versus untreated RBCs” value in series [7] and in series [8] was “did not show a significant difference” throughout. In addition, the IC50 in series [9] was 22.3 ± 8 µM. Besides, the “combined treatment efficacy with quinine” value in series [10] is reported as “slight antagonistic efficacy”. The cytotoxic action result in series [11] is “mild cytotoxic action”.

On to `O=C1C(O)=C([C@H]2CC[C@H](c3ccc(Cl)cc3)CC2)C(=O)c2ccccc21` [AV, atovaquone], for which the “Selective Index NIH/3T3” value in series [6] (setting [12]) is listed as “˃142.7”; in series [6] (EC50 NIH/3T3 / IC50 B. bovis) it was “˃2564”; in series [6] (EC50 NIH/3T3 / IC50 B. caballi), “˃980.4”; in [6] (setting [13]), “˃2631”; in series [6] (EC50 NIH/3T3 / IC50 T. equi), “˃1052”. Moreover, the EC50 in [6] (Mus musculus, NIH3T3, NIH/3T3 cells, 24 h, CCK-8) was > 100 µM.

As for `CC(=O)NCC(=O)O.CC(=O)NCC(=O)O.N=C(N)c1ccc(N=NNc2ccc(C(=N)N)cc2)cc1` [DA, diminazene aceturate], the “Selective Index NIH/3T3” value is “˃147.1” in [6] (setting [12]); “˃285.7” in series [6] (EC50 NIH/3T3 / IC50 B. bovis); “˃5000” in series [6] (EC50 NIH/3T3 / IC50 B. caballi); “˃232.5” in series [6] (setting [13]); “˃140.8” in [6] (EC50 NIH/3T3 / IC50 T. equi). Also, the EC50 in series [6] (NIH/3T3 cells, 24 h, CCK-8) was > 100 µM.
